In ChEMBL document CHEMBL4665881, “Pyrroformyl-containing 2,4-diaminopyrimidine derivatives as a new optimization strategy of ALK inhibitors combating mutations” (Bioorg Med Chem, 2020):
pIC50: −log10 of the molar value.

Experiments:
[1] = test system: NCI-H2228; experiment: Antiproliferative activity against human H2228 cells assessed as reduction in cell viability incubated for 72 hrs by MTT assay; format: functional, cell-based; conditions: NCI-H2228, 72 h
[2] = test system: A549; experiment: Antiproliferative activity against human A549 cells assessed as reduction in cell viability incubated for 72 hr by MTT assay; conditions: A549, 72 h
[3] = test system: KARPAS-299; experiment: Antiproliferative activity against human Karpas299 cells assessed as reduction in cell viability incubated for 72 hrs by MTT assay; conditions: KARPAS-299, 72 h
[4] = target: ALK tyrosine kinase receptor (Homo sapiens, UniProt Q9UM73); experiment: Inhibition of wild-type ALK (unknown origin) incubated for 1 hr
Chain of ALK tyrosine kinase receptor (Homo sapiens, UniProt Q9UM73) (Q9UM73 whole entry): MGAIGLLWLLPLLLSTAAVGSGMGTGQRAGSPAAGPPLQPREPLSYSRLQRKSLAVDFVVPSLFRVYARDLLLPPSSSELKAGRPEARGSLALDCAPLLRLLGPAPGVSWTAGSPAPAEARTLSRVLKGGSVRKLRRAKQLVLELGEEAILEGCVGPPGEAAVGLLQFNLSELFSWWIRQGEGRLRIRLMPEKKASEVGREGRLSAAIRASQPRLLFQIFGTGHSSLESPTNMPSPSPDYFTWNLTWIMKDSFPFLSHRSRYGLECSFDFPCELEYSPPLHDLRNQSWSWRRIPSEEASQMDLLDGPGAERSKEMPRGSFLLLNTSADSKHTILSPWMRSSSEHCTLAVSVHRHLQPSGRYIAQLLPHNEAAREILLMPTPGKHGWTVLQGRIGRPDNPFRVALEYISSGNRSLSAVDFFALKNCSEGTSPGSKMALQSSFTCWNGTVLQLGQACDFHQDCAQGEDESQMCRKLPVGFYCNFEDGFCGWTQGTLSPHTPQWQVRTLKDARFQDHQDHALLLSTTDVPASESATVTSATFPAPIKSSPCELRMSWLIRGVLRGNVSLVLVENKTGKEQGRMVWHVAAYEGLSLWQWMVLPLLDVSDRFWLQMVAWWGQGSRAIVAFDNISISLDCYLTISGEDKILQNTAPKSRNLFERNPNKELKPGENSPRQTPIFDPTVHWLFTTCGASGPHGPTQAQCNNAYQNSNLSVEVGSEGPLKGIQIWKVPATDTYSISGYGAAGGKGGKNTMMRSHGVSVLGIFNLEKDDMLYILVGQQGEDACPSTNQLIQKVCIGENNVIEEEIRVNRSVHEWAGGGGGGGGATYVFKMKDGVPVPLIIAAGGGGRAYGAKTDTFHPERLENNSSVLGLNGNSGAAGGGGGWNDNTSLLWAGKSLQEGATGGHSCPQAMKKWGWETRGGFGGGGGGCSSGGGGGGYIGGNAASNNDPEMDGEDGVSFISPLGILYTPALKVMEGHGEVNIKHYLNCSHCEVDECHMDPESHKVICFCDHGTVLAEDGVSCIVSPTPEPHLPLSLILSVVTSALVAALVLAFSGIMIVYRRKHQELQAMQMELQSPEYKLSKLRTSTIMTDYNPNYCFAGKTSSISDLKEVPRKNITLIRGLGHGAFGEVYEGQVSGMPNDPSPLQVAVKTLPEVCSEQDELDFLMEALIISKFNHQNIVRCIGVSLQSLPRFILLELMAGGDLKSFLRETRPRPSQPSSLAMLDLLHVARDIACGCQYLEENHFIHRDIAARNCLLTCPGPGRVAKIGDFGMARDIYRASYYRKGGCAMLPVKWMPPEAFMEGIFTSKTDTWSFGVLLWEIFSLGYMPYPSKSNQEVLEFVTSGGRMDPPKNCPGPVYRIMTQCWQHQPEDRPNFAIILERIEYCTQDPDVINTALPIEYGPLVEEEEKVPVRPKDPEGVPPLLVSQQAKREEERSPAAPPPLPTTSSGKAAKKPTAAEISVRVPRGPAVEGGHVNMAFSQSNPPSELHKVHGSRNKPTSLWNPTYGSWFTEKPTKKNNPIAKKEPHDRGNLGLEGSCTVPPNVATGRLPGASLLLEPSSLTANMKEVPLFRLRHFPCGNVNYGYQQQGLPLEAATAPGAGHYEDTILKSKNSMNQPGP

[5] = target: ALK tyrosine kinase receptor (Homo sapiens, UniProt Q9UM73, L1196M); experiment: Inhibition of ALK L1196M (unknown origin) incubated for 1 hr
Chain of ALK tyrosine kinase receptor (Homo sapiens, UniProt Q9UM73, L1196M) (Q9UM73 19-1620 L1196M limits assumed): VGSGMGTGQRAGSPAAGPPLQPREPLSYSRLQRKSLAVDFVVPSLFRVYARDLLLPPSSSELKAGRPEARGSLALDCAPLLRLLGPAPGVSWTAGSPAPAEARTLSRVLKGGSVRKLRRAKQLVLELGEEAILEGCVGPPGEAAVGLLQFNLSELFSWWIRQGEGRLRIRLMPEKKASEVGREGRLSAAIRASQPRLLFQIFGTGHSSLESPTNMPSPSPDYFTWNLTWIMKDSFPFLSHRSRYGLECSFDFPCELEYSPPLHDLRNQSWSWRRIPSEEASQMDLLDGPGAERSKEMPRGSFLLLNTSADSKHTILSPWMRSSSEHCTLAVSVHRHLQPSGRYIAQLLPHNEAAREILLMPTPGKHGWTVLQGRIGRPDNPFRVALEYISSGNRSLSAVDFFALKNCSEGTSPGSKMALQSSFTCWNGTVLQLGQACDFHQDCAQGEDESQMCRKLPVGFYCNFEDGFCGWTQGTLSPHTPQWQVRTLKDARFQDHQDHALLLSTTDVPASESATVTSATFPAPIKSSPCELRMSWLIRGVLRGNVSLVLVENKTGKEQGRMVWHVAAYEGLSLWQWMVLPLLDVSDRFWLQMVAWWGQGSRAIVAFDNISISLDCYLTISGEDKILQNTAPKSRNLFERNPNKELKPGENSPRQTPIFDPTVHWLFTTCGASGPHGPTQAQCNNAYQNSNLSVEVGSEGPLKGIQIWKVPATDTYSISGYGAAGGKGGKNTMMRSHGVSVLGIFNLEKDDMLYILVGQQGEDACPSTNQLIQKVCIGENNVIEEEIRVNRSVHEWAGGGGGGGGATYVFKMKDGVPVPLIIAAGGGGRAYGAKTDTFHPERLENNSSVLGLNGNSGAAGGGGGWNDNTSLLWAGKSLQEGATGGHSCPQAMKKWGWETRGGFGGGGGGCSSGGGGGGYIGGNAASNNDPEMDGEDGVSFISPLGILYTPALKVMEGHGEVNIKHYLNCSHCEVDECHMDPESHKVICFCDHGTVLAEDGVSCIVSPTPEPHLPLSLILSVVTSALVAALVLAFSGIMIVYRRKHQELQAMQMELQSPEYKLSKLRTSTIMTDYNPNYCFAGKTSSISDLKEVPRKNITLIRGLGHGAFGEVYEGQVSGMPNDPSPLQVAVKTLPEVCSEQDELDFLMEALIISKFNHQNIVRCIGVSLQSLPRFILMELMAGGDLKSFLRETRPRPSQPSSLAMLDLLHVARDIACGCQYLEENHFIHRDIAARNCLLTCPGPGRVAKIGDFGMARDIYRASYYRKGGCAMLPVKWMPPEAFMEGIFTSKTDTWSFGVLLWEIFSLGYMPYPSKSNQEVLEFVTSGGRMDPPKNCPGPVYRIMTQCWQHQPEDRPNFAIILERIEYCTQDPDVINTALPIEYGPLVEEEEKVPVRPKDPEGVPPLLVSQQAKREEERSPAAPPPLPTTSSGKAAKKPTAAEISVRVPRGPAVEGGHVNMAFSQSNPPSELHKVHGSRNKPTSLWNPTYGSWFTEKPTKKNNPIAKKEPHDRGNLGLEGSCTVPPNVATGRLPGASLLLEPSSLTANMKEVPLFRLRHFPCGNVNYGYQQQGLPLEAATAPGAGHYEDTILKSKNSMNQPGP

Row | SMILES | pIC50 [1] | pIC50 [2] | pIC50 [3] | pIC50 [4] | pIC50 [5]
1 | CNC(=O)c1ccccc1Nc1nc(Nc2ccc(-n3cccc3C(=O)N3CCC(C)CC3)cc2OC)ncc1Cl | 5.97 | < 5.00 | 5.64 |  | 
2 | CNC(=O)c1ccccc1Nc1nc(Nc2ccc(-n3cccc3C(=O)NCCO)cc2OC)ncc1Cl | 7.37 | < 5.00 | 6.10 | 8.02 | 7.87
3 | CCN(CC)C(=O)c1cccn1-c1ccc(Nc2ncc(Cl)c(Nc3ccccc3C(=O)NC)n2)c(OC)c1 | 6.27 | 5.46 | 6.57 |  | 
4 | CNC(=O)c1ccccc1Nc1nc(Nc2ccc(-n3cccc3C(=O)N3CCN(C)CC3)cc2OC)ncc1Cl | 6.01 | < 5.00 | 7.05 |  | 
5 | COc1cc(-n2cccc2C(=O)O)ccc1Nc1ncc(Cl)c(Nc2ccccc2NS(C)(=O)=O)n1 | 7.19 | 5.97 | 7.14 |  | 
6 | COc1cc(-n2cccc2C(=O)N2CCCCC2)ccc1Nc1ncc(Cl)c(Nc2ccccc2NS(C)(=O)=O)n1 | 6.20 | < 5.00 | 5.98 |  | 
7 | CNC(=O)c1ccccc1Nc1nc(Nc2ccc(-n3cccc3C(=O)N3CCCCC3)cc2OC)ncc1Cl | 6.00 | < 5.00 | 5.79 |  | 
8 | COC(=O)c1cccn1-c1ccc(Nc2ncc(Cl)c(Nc3ccccc3NS(C)(=O)=O)n2)c(OC)c1 | 6.02 | 5.60 | 6.10 |  | 
9 | CCN1CCN(C(=O)c2cccn2-c2ccc(Nc3ncc(Cl)c(Nc4ccccc4NS(C)(=O)=O)n3)c(OC)c2)CC1 | 5.95 | < 5.00 | 5.85 | 8.07 | 7.93
10 | CNC(=O)c1ccccc1Nc1nc(Nc2ccc(-n3cccc3C(=O)N(C)C)cc2OC)ncc1Cl | 7.05 | 5.39 | 5.97 |  | 
11 | CCN1CCN(C(=O)c2cccn2-c2ccc(Nc3ncc(Cl)c(Nc4ccccc4C(=O)NC)n3)c(OC)c2)CC1 | 5.90 | 5.80 | 6.03 |  | 
12 | CNC(=O)c1ccccc1Nc1nc(Nc2ccc(-n3cccc3C(=O)N3CCSCC3)cc2OC)ncc1Cl | 5.98 | 5.66 | 5.94 |  | 
13 | CNC(=O)c1ccccc1Nc1nc(Nc2ccc(-n3cccc3C(=O)OC)cc2OC)ncc1Cl | 6.01 | 5.07 | 6.05 |  | 
14 | COc1cc(-n2cccc2C(=O)N2CCC(C)CC2)ccc1Nc1ncc(Cl)c(Nc2ccccc2NS(C)(=O)=O)n1 | 5.98 | 5.66 | 5.86 |  | 
15 | COc1cc(-n2cccc2C(=O)N2CCSCC2)ccc1Nc1ncc(Cl)c(Nc2ccccc2NS(C)(=O)=O)n1 | 6.15 | 5.83 | 6.03 | 8.35 | 8.08
16 | COc1cc(-n2cccc2C(=O)NCCO)ccc1Nc1ncc(Cl)c(Nc2ccccc2NS(C)(=O)=O)n1 | 7.47 | < 5.00 | 7.35 | 8.72 | 8.51

Row | SMILES | pIC50 [1] | pIC50 [2] | pIC50 [3] | pIC50 [4] | pIC50 [5]
17 | COc1cc(-n2cccc2C(=O)N2CC(O)C2)ccc1Nc1ncc(Cl)c(Nc2ccccc2NS(C)(=O)=O)n1 | 7.36 | 5.68 | 7.09 |  | 
18 | CNC(=O)c1ccccc1Nc1nc(Nc2ccc(-n3cccc3C(=O)N3CCOCC3)cc2OC)ncc1Cl | 6.08 | 5.66 | 5.99 |  | 
19 | COc1cc(-n2cccc2C(=O)N(C)C)ccc1Nc1ncc(Cl)c(Nc2ccccc2NS(C)(=O)=O)n1 | 7.27 | < 5.00 | 7.11 |  | 
20 | CCN(CC)C(=O)c1cccn1-c1ccc(Nc2ncc(Cl)c(Nc3ccccc3NS(C)(=O)=O)n2)c(OC)c1 | 7.06 | 6.01 | 6.98 |  | 
21 | CNC(=O)c1ccccc1Nc1nc(Nc2ccc(-n3cccc3C(=O)N3CC(O)C3)cc2OC)ncc1Cl | 7.36 | 5.38 | 6.13 |  | 
22 | COc1cc(-n2cccc2C(=O)N2CCN(C)CC2)ccc1Nc1ncc(Cl)c(Nc2ccccc2NS(C)(=O)=O)n1 | 5.98 | < 5.00 | 6.01 |  | 
23 | COc1cc(-n2cccc2C(=O)N2CCC(O)CC2)ccc1Nc1ncc(Cl)c(Nc2ccccc2NS(C)(=O)=O)n1 | 6.18 | < 5.00 | 6.01 |  | 
24 | COc1cc(-n2cccc2C(=O)N2CCOCC2)ccc1Nc1ncc(Cl)c(Nc2ccccc2NS(C)(=O)=O)n1 | 6.21 | 5.75 | 6.19 |  | 
25 | CNC(=O)c1ccccc1Nc1nc(Nc2ccc(-n3cccc3C(=O)N3CCCC3)cc2OC)ncc1Cl | 6.11 | < 5.00 | 6.08 |  | 
26 | CNC(=O)c1ccccc1Nc1nc(Nc2ccc(-n3cccc3C(=O)N3CCN(CCO)CC3)cc2OC)ncc1Cl | 5.85 | < 5.00 | 6.37 |  | 
27 | CNC(=O)c1ccccc1Nc1nc(Nc2ccc(-n3cccc3C(=O)N3CCC(O)CC3)cc2OC)ncc1Cl | 5.97 | < 5.00 | 6.01 |  | 
28 | COc1cc(-n2cccc2C(=O)N2CCN(CCO)CC2)ccc1Nc1ncc(Cl)c(Nc2ccccc2NS(C)(=O)=O)n1 | 5.97 | < 5.00 | 5.90 |  | 
29 | Cc1cc(Nc2ncc(Cl)c(Nc3ccccc3S(=O)(=O)C(C)C)n2)c(OC(C)C)cc1C1CCNCC1 [CERITINIB] | 5.97 |  |  |  | 
30 | COc1cc(-n2cccc2C(=O)N2CCCC2)ccc1Nc1ncc(Cl)c(Nc2ccccc2NS(C)(=O)=O)n1 | 6.22 | 5.34 | 6.06 |  | 
31 | CNC(=O)c1ccccc1Nc1nc(Nc2ccc(-n3cccc3C(=O)O)cc2OC)ncc1Cl | 7.06 | 5.60 | 6.77 |  | 
